# From US20250154686A1, “COMPOUND LIBRARY” (CHUGAI SEIYAKU KABUSHIKI KAISHA, priority 2021, published 2025)
# Experiments:
# Human Bcl-2 protein [1] = target: T1, Human Bcl-2 protein (Homo sapiens, UniProt P10415); test: Evaluation of binding of compound to Bcl-2 by surface plasmon resonance (SPR), Example 7; conditions: for equilibrium dissociation constant compared with compound B2Q045-01: SPR, comparison with B2Q045-01; for binding to Bcl-2 confirmed by SPR: compounds identified by AS-MS (Example 5), individually synthesized
# T1 construct: purchased Novus Biologicals
# Procedure: (§1) A surface plasmon resonance method was used in order to analyze the binding affinity of the compounds synthesized in Example 1 and Example 6, which are shown in Table AK-01, for Bcl-2. The apparatus used was Biacore T200 (GE Healthcare Japan Corp.), and the running buffer used was HBS (10 mM HEPES-NaOH and 150 mM NaCl, pH 7.4) supplemented with 1 mM DTT, 3 mM EDTA, 0.01% Tween 20 and 4% DMSO. Human Bcl-2 protein (Novus Biologicals) was biotinylated using EZ-Link Sulfo-NHS-LC-LC-biotin (Thermo Fisher scientific Inc.) and immobilized on the surface of Sensor Chip SA (GE Healthcare Japan Corp.). Then, compound solutions having a plurality of concentrations and the running buffer (blank) were added to the Bcl-2-immobilized surface to obtain the binding response of the compounds. Measurement was performed at 15° C.′.
# The obtained sensorgrams were treated with Biacore T200 Evaluation Software, and the equilibrium dissociation constant KD of each compound for Bel-2 was determined as shown in the following Table AK-02 and Table AK-03.
# Human Bcl-2 protein [2] = target: T1, Human Bcl-2 protein; test: Evaluation of binding of compound to Bcl-2 by surface plasmon resonance (SPR)-2, Example 13; conditions: for equilibrium dissociation constant KD compared with B2Q045-01 (KD=1.20 μM) or B2Q048-01 (KD=0.480 μM): Biacore T200, 15° C.; for Kd: Biacore T200, biotinylated Bcl-2 immobilized on Sensor Chip SA, 15° C., read-out: Equilibrium dissociation constant KD
# Procedure: as §1, with “12 for Bcl-2,” for “1 and Example 6,”, “13-1.” for “AK-01, for Bcl-2.”, “NHS-PEG4-Biotin” for “Sulfo-NHS-LC-LC-biotin”, “(Cytiva).” for “(GE Healthcare Japan Corp.).”, “C.” for “C.′.”
# The obtained sensorgrams were treated with Biacore T200 Evaluation Software, and the equilibrium dissociation constant KD of each compound for Bcl-2 was determined as shown in the following Table 13-2.
# [3] = target: T2, Bcl-2 protein (Recombinant Human Bcl-2 Protein) (Homo sapiens, UniProt P10415); test: AS-MS evaluation of binding of the mixture libraries of Examples 8 and 9 to Bcl-2, ASMS ratio (%), Example 11; conditions: ASMS ratio, mixtures obtained from Example 9, 10 uM Bcl-2 protein; for AS-MS(%) N1: replicate N1; for AS-MS(%) N2: replicate N2; for AS-MS(%) N3: replicate N3 (additional day); for AS-MS(%) N4: replicate N4 (additional day)
# T2 construct: purchased Novus Biologicals NBP2-34889
# Procedure: DMSO solutions (prepared into approximately 5 mM based on calculation from the average molecular weight of each mixture) of the mixtures of each Example shown in Table 11-1-1 were respectively dispensed to 8 wells of MICROPLATE, 96-WELL, PP, V-BOTTOM (Greiner Bio-One International GmbH, 651201). 400 nL each from the 8 wells of the mixtures obtained from Example 8 was dispensed into 3 designated wells while 200 nL each from the 8 wells of the mixtures obtained from Example 9 was dispensed into 3 designated wells, using LABCYTE ECHO® 555 acoustic dispensing system (Beckman Coulter, Inc.). 200 nL each of two types of 10 μM positive controls (B2Q045-01 and B2Q048-01) was dispensed to the mixtures obtained from Example 8. Likewise, 100 nL each of two types of 20 μM positive controls and 400 nL of a DMSO solution by backfill was dispensed to the mixtures obtained from Example 9. Further, Bcl-2 protein (Novus Biologicals, NBP2-34889, Recombinant Human Bcl-2 Protein, Lot E60145051) (19.2 μL) prepared at 5 µM (final protein concentration) for the mixtures obtained from Example 8 and 10 µM (final protein concentration) for the mixtures obtained from Example 9, in advance using a Tris-HCl buffer (25 mM Tris-HCl, pH 7.4, 150 mM NaCl, 0.025% Tween-20, and 1 mM DTT) was added to the well containing the dispensed 1000 compounds or 500 compounds (final compound concentration: 100 nM), and the plate was incubated at 23° C. for 1 hour in the dark. Subsequently, 200 μL of an assay buffer (25 mM Tris-HCl, pH 7.4, 150 mM NaCl, 0.025% Tween-20, and 1 mM DTT) was centrifuged three times at 2000×G at 4° C. for 2 minutes using 96-well MacroSpin column, P-2 Material (Harvard Bioscience, Inc., 74-5655) that had been allowed to swell to condition the 96-well MacroSpin column. Subsequently, 20 μL of the sample thus incubated was added to the 96-well MacroSpin column, P-2 Material after the completion of conditioning, and SEC treatment was performed by centrifugation at 2000×G for 2 minutes. 32 μL of a 1:1 mixed solution of acetonitrile and methanol (LC/MS grade, FUJIFILM Wako Pure Chemical Corp.) was added to a flow-through liquid from SEC, and the mixture was centrifuged at 1800×G at 4° C. for 5 minutes. The supernatant was used as analysis sample ASMS (A). By a similar operation, a sample prepared at 500 compounds/well or 1000 compounds/well and supplemented with only a Tris-HCl buffer containing no Bcl-2 protein was incubated under the same conditions as above, and the same organic solvent as above was added thereto without 96-well MacroSpin column treatment. A supernatant obtained by a centrifugation operation was used as STD (B). Next, by a similar operation, a sample prepared at 1000 compounds/well or 500 compounds/well and supplemented with only a Tris-HCl buffer containing no Bcl-2 protein was incubated under the same conditions as above and treated with 96-well MacroSpin column in the same manner as above, and the same organic solvent as above was added thereto. A supernatant obtained by a centrifugation operation was used as BK (C). These samples were measured by reverse-phase LC/MS.
# Then, the samples A, B and C were analyzed for the 1000 compounds or 500 compounds using TraceFinder 5.1 (Thermo Fisher Scientific Inc.) and CHANCE Software (in-house), and an ASMS ratio (%) was calculated according to the following expression.
# The mixtures obtained from Example 8 were tested at the number of data of 2 (N1 and N2) in order to ensure reproducibility. The mixtures obtained from Example 9 were tested at the total number of data 4 (N1,N2, N3, and N4) involving the number of data of 2/day (N1 and N2) and data obtained on additional days.
# T1 sequence (P10415 whole entry): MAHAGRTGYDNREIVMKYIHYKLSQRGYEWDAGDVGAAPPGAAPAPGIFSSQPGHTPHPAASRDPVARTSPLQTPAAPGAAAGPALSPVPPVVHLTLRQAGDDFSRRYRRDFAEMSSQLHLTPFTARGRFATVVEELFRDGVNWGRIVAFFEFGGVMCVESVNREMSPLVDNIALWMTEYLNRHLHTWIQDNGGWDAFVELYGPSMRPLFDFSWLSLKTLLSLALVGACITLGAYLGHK
# T2 sequence (P10415 whole entry): as above
SMILES,equilibrium dissociation constant compared with compound B2Q045-01 (Human Bcl-2 protein [1]),binding to Bcl-2 confirmed by SPR (Human Bcl-2 protein [1]),equilibrium dissociation constant KD compared with B2Q045-01 (KD=1.20 μM) or B2Q048-01 (KD=0.480 μM) (Human Bcl-2 protein [2]),Kd (Human Bcl-2 protein [2]),AS-MS(%) N1 [3],AS-MS(%) N2 [3],AS-MS(%) N3 [3],AS-MS(%) N4 [3]
"CCOc1cncc(-c2ccc(CN3CCN(c4ccc(C(=O)NS(=O)(=O)c5ccc(NCCSc6ccccc6)c([N+](=O)[O-])c5)cc4)CC3)cc2C)c1 [Compound B2Q048-01, 4-[4-[[4-(5-ethoxypyridin-3-yl)-3-methylphenyl]methyl]piperazin-1-yl]-N-[3-nitro-4-(2-phenylsulfanylethylamino)phenyl]sulfonylbenzamide]",smaller equilibrium dissociation constant Kp,confirmed to bind by SPR,–,–,–,–,–,–
"CCOc1cncc(-c2ccc(CN3CCN(c4ccc(C(=O)NS(=O)(=O)c5ccc(NCCSc6ccccc6)c([N+](=O)[O-])c5)cc4)CC3)c3ccccc23)c1 [Compound B2Q066-01, 4-[4-[[4-(5-ethoxypyridin-3-yl)naphthalen-1-yl]methyl]piperazin-1-yl]-N-[3-nitro-4-(2-phenylsulfanylethylamino)phenyl]sulfonylbenzamide]",smaller equilibrium dissociation constant Kp,–,–,–,–,–,–,–
CC(C(=O)Nc1ccc(F)cc1)c1cc(O)cc(N2CCN(c3ccc(C(=O)NS(=O)(=O)c4ccc(N[C@H](CCN5CCOCC5)CSc5ccccc5)c([N+](=O)[O-])c4)cc3)CC2)c1 (some centres unmarked) [2-2-d1E04-1-0454],–,–,smaller equilibrium dissociation constant KD,788 nM,72.6%,87.8%,78.5%,74.6%
CCOc1cc(C(C)C(=O)Nc2ccccc2)cc(N2CCN(c3ccc(C(=O)NS(=O)(=O)c4ccc(N[C@H](CCN5CCOCC5)CSc5ccccc5)c([N+](=O)[O-])c4)cc3)CC2)c1 (some centres unmarked) [2-2-d1E04-2-0417],–,–,smaller equilibrium dissociation constant KD,846 nM,43.8%,48.8%,53.8%,65.5%
"CCOc1cccc(-c2ccc(CN3CCN(c4ccc(C(=O)NS(=O)(=O)c5ccc(NCCSc6ccccc6)c([N+](=O)[O-])c5)cc4)CC3)cc2C)c1 [Compound B2Q047-01, 4-[4-[[4-(3-ethoxyphenyl)-3-methylphenyl]methyl]piperazin-1-yl]-N-[3-nitro-4-(2-phenylsulfanylethylamino)phenyl]sulfonylbenzamide]",smaller equilibrium dissociation constant Kp,confirmed to bind by SPR,–,–,–,–,–,–
CCOc1cc(C(C)C(=O)Nc2nc3ccccc3s2)cc(N2CCN(c3ccc(C(=O)NS(=O)(=O)c4ccc(N[C@H](CCN5CCOCC5)CSc5ccccc5)c([N+](=O)[O-])c4)cc3)CC2)c1 (some centres unmarked) [2-2-d1E04-2-0495],–,–,smaller equilibrium dissociation constant KD,706 nM,52.7%,137.5%,56.0%,50.3%
